# Experiments:
# MC3T3 H1 osteoblasts [1] = experiment: Adhesion of MC3T3 H1 osteoblasts to PMMA moulded articles coated with acrylate RGD peptides; assay type: cell-based, mouse
# Procedure: For the covalent coupling of these peptides to polymerized PMMA (polymethyl methacrylate) surfaces, appropriate shaped articles of differing porosity (diameter: 10 mm; height: 2 mm) were prepared from three different PMMA components.
# Bone cement based on PMMA (Merck KGaA, Germany, Licence No. 5181.00.00) corresponding to the product description (40 g of powder+20 ml of liquid).
# 10 g of PMMA/PHEMA (polyhydroxyethyl methacrylate) granules, particle size 0.5-0.6 mm (Biomet) were mixed with 1.3 ml of an HEMA solution (68.6% HEMA, 29.4% TEGMA [triethylene glycol dimethacrylate], 2% tBPB, [tert-butyl peroxybenzoate]) and adhered by means of this to a porous support material.
# 10 g of PMMA granules (Plex Y7H, Rohm, Germany), particle fraction 0.7-2 mm were mixed with 1.5 ml of a methyl methacrylate (MMA) solution (68.6% MMA, 29.4% TEGMA, 2% tBPB) and adhered by this means to a porous support material.
# For the covalent coupling of the acrylate peptides to the prepolymerized PMMA moulded articles, stock solutions of the acrylate peptides 1, 2, 3 and 4 were prepared in a final concentration of 100 μM in each case in DMSO/0.2% camphorquinone (w/v). Then, by dilution with isopropanol/0.2% camphorquinone (w/v), concentration series having final peptide concentrations of 0.1 nM, 1 nM, 10 nM, 100 nM, 1 μM and 10 μM in each case were prepared. The moulded articles were incubated in daylight and at room temperature for 2 hours and then stored at 4° C. in the dry state. Before use, the samples were washed with PBS, pH 7.4, to remove unbound peptides and stored at 4° C. in PBS, pH 7.4, overnight.
# By addition of 250 μl/moulded article each of a 5% strength BSA solution in PBS, pH 7.4, and subsequent incubation for 2 hours at room temperature and washing once with PBS, pH 7.4, non-specific cell-binding sites were blocked.
# Subsequently, the adhesion of osteoblasts of the MC3T3 H1 line, obtained from the calvaria of neonatal mice (Heermeier et al., 1995, Cells and Materials 5: 309-321) to the above-described peptide-coated surfaces was investigated.
# The MC3T3 H1 osteoblasts were inoculated at an inoculation density of 48,000 cells/cm^2, as described above, in Costar 48-well plates, with PMMA moulded articles coated with RGD peptide and then incubated for 1 hour at 37° C., 95% atmospheric humidity and 5% CO2. Cells non-adhered during the experiment were then washed off twice with PBS, pH 7.4.
# (§1) The quantification of the adhered cells was carried out indirectly via the activity determination of the cellular enzyme N-acetylhexosaminidase using an appropriate standard curve according to the method of Landegren (1984, J. Immunol. Methods, 67: 379-388).
# MC3T3 H1 osteoblasts [2] = experiment: Adhesion of MC3T3 H1 osteoblasts to BSA-pretreated polystyrene surfaces coated with thiol-RGD peptides via sulpho-SMPB; assay type: cell-based, mouse; conditions: for stimulation of the adhesion of cultured mouse MC3T3 H1 osteoblasts: BSA-pretreated polystyrene, peptide coupled via sulpho-SMPB, FIG. 2; for maximum adsorption rate (of the inoculated cells): MC3T3 H1 mouse osteoblasts, 48,000 cells/cm^2, 1 hour
# Procedure: (§2) The covalent coupling of the peptides according to the invention with sulphosuccinimidyl 4-(p-maleimidophenyl)butyrate (sulpho-SMPB) to culture surfaces of polystyrene precoated with bovine serum albumin (BSA) was accomplished following the established processes of Singer et al., 1987, J. Cell. Biol. 104: 573, or of Ruoslahti et al. (1982, Methods. Enzymol., 82: 803-831).
# To do this, 48-well plates (Costar, "non-tissue culture treated", Art. No. 3547) were each coated with 250 μl of PBS (phosphate-buffered saline), pH=8.3, 2% BSA, per well and incubated overnight at room temperature in order to generate a BSA layer on the polystyrene. The plates were then washed with 250 μl of PBS, pH=8.3, per well and incubated at room temperature for 1 hour with 250 μl each of a solution containing 100 μg/ml of SMPB in PBS, pH 8.3. Washing of the wells was then carried out three times using 250 μl of PBS, pH 8.3, each time. For the preparation of the coating solutions, the appropriate thiol-RGD peptide was prepared in the following final concentrations in PBS, pH 8.3: 1 nM, 10 nM, 100 nM, 1 μM, 10 μM, 100 μM and 1 mM. After addition of 250 μl each of coating solution/well, the plates were incubated at room temperature overnight and then washed three times with PBS, pH 8.3. By addition of 250 μl each of a 5% strength BSA solution in PBS, pH 7.4, subsequent incubation for 2 hours at room temperature and washing with PBS, pH 7.4, non-specific cell-binding sites were blocked. Polystyrene surfaces, which from the coating were treated with a 5% strength BSA solution identically to the positive samples, functioned as negative coating controls. The adhesion of four cell cultures which were obtained from three different species was then investigated on the abovementioned surfaces coated with RGD peptide:
# osteoblast cell line MC3T3 H1, obtained from the calvaria of neonatal mice (Heermeier et al., 1995, Cells and Materials, 5: 309-321), and
# The cell species described were inoculated with an inoculation density of 48,000 cells/cm^2 into, as described above, Costar-48 well plates coated with RGD peptide, and then incubated for 1 hour at 37° C., 95% atmospheric humidity and 5% CO2. Cells unadhered during the experiment were then washed off twice with PBS, pH 7.4.
# as §1
# primary rat osteoblasts = experiment: Adhesion of primary rat osteoblasts to BSA-pretreated polystyrene surfaces coated with thiol-RGD peptides via sulpho-SMPB; assay type: cell-based; conditions: 48,000 cells/cm^2, 1 hour
# Procedure: as §2
# (§3) To do this, 48-well plates (Costar, "non-tissue culture treated", Art. No. 3547) were each coated with 250 μl of PBS (phosphate-buffered saline), pH=8.3, 2% BSA, per well and incubated overnight at room temperature in order to generate a BSA layer on the polystyrene. The plates were then washed with 250 μl of PBS, pH=8.3, per well and incubated at room temperature for 1 hour with 250 μl each of a solution containing 100 μg/ml of SMPB in PBS, pH 8.3. Washing of the wells was then carried out three times using 250 μl of PBS, pH 8.3, each time. For the preparation of the coating solutions, the appropriate thiol-RGD peptide was prepared in the following final concentrations in PBS, pH 8.3: 1 nM, 10 nM, 100 nM, 1 μM, 10 μM, 100 μM and 1 mM. […]
# as §1
# [3] = test system: primary human osteoprogenitor cells; experiment: Adhesion of primary human osteoprogenitor cells to BSA-pretreated polystyrene surfaces coated with thiol-RGD peptides via sulpho-SMPB; assay type: cell-based; conditions: 48,000 cells/cm^2, 1 hour
# Procedure: as §2, §3, §1
# osteoblast cultures = experiment: Adhesion of the different osteoblast cell species to thiolpeptide-coated BSA-polystyrene surfaces (statements over all cultures); assay type: cell-based, mouse, human, rat; conditions: all osteoblast cultures employed
# Procedure: as §2, §3, §1
# [4] = test system: primary human osteoblasts; experiment: Adhesion of primary human osteoblasts to BSA-pretreated polystyrene surfaces coated with thiol-RGD peptides via sulpho-SMPB; assay type: cell-based; conditions: 48,000 cells/cm^2, 1 hour
# Procedure: as §2, §3, §1
# [5] = test system: human melanoma cell line M21L; experiment: Adhesion of alphav beta3-/alphav beta5-negative control cells M21L to thiolpeptide-coated BSA-polystyrene surfaces; assay type: cell-based; conditions: BSA-pretreated polystyrene coated with thiolpeptide
# Procedure: as §2, §3, §1
"EC50 (MC3T3 H1 osteoblasts [1]; different PMMA moulded articles, read-out: half-maximal cell bindings, RGD peptide concentration in the coating solution) [µM]",Substance,"cell adsorption rates increased in comparison with uncoated surfaces (MC3T3 H1 osteoblasts [1]; bone cement shaped articles, FIG. 8)","maximal adsorption rates (MC3T3 H1 osteoblasts [1]; different PMMA moulded articles, 48,000 cells/cm^2, 1 hour)","cell adsorption rates increased in comparison with uncoated surfaces (MC3T3 H1 osteoblasts [1]; porous PMMA/PHEMA granule shaped articles, FIG. 9)","cell adsorption rates increased in comparison with uncoated surfaces (MC3T3 H1 osteoblasts [1]; porous Plex Y7H granule shaped articles, FIG. 10)",stimulation of the adhesion of cultured mouse MC3T3 H1 osteoblasts (MC3T3 H1 osteoblasts [2]),maximum adsorption rate (of the inoculated cells) (MC3T3 H1 osteoblasts [2]),maximum adsorption rate (of the inoculated cells) (primary rat osteoblasts),maximum adsorption rate (of the inoculated cells) [3],cell adsorption rates raised compared with 5% BSA-coated surfaces (osteoblast cultures),maximum adsorption rate (of the inoculated cells) [4],cell adhesion of alphav beta3-/alphav beta5-negative control cells (M21L) [5]
0.001 to 10,cyclo(RGDf[acrylic-ahx-tEG-tEGK]) [acrylate peptide 4],5-15 fold,80-100%,2-5 fold,2-3 fold,,,,,,,
,cyclo-RGDfK NH--CO--CH2 --CH2 --CO--NH--CH2 --CH2 --S-- (sulpho-SMPB) [thiolpeptide 2-(sulpho-SMPB) derivative],,,,,strong and dose-dependent stimulation,90-100%,about 70%,about 80%,20-40 fold,about 80%,do not show any significant cell adhesion
,cyclo-RGDfK NH--CO--CH2 --CH2 --S-- (sulpho-SMPB) [thiolpeptide 1-(sulpho-SMPB) derivative],,,,,strong and dose-dependent stimulation,90-100%,about 70%,about 80%,20-40 fold,about 80%,do not show any significant cell adhesion
,"cyclo-RGDvE CO--NH--CH2 --CH2 --CH2 --CH2 --CH2 --CO--NH--CH2 --CH2 --S-- (sulpho SMPB) [thiolpeptide 3-(sulfo-SMPB), reference compound]",,,,,markedly weaker effect,,,,,,
,"cyclo-RβADfK-NH--CO--CH2 --CH2 --S-- (sulpho-SMPB) [thiolpeptide control, reference compound]",,,,,no significant effect,,,,,,

# — patent US6280760A, “Peptide-coated implants and methods for producing same” (Merck Patent Gesellschaft mit beschraenkter Haftung, priority 1997, dated 2001)
